The record followed here is publication PMC11613273, “High-Affinity Peptides for Target Protein Screened in Ultralarge Virtual Libraries” (ACS Central Science, 2024).

Where no end group is shown, it is not given here.

What is called Kd is the equilibrium constant for the complex coming apart.

One test has as its target SARS-CoV-2 RBD (Severe acute respiratory syndrome coronavirus 2, UniProt P0DTC2). Type of test: binding. The note with it: maximum steady-state BLI response signal from fit.
For another test, the target named is Noro P-domain (Norovirus Hu/GII.4/Sydney/NSW0514/2012/AU, UniProt K4LM89). Kind of test: BLI analysis, steady-state. Type of test: binding, Norovirus GII.4. Conditions: maximum steady-state BLI response signal from fit.
In the next test the target is T1, AFP (Homo sapiens, UniProt P02771).
T1 construct: purchased Sino Biological Co., LTD; (Beijing)
T1 sequence (P02771 19-609): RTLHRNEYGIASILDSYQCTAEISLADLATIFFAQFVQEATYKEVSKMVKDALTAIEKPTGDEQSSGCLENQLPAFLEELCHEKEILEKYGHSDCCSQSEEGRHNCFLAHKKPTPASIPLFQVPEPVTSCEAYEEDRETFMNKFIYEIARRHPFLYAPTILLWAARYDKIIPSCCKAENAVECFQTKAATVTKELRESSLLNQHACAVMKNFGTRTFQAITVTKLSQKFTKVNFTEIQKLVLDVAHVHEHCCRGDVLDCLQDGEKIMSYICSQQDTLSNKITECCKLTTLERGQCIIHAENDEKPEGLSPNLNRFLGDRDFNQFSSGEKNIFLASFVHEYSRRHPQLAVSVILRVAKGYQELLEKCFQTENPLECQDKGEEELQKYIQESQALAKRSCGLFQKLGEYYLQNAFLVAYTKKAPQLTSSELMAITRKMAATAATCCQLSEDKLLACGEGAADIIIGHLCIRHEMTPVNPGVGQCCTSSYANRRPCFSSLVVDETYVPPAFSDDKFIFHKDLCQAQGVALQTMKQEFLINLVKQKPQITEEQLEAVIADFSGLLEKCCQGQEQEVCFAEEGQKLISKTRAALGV
Briefly: BLI analysis, steady-state. The note with it: for Kd: BLI Octet Red96, biotinylated target on SSA sensors, peptide 3.125 to 200 nM, 25°C, kinetics buffer (10 mM PBS, 0.1% BSA, 0.05% Tween-20), steady-state fit, 1:1 model; for Rmax: maximum steady-state BLI response signal from fit. Type of test: binding.

On SARS-CoV-2 RBD, CPPPAPQFPFPWPPW [Pep-2458] showed an Rmax of 0.2149±0.0080 nm.

In turn, CPPPFPGRPPPWPPF [Pep-1927] displayed an Rmax on SARS-CoV-2 RBD of 0.1296±0.0076 nm.

At SARS-CoV-2 RBD, CPPPPPYYKPPGHPP [Pep-6626] gave an Rmax of 0.1940±0.0063 nm.

FFGPPPWPPPPPPWY [Pep-3076] came in with an Rmax at Noro P-domain of 0.4267±0.0208 nm.

Sequence FPPPPPHPWPPPPWA [Pep-21] returned an Rmax on Noro P-domain of 0.7092±0.0344 nm.

For FPPPPWWDWPPPPWW [Pep-595], the Rmax on Noro P-domain came to 0.4957±0.0130 nm.

For PIWWYHAEKPEHWPI [Pep-5890], at AFP, the Kd was determined as 74.8 ± 11 nM and the Rmax is listed as 0.2242±0.0144 nm.

Take WWALEHYPPPYMQIW [Pep-6973]: at AFP, binding was characterised by a dissociation constant (Kd) of 69.3 ± 14.4 nM and the Rmax is reported as 0.2449±0.0216 nm.

Consider WWWWWPHHDWKLVWC [Pep-7937], for which, at AFP, the dissociation constant (Kd) was 40.6 ± 7.31 nM and the Rmax is 0.0945±0.0061 nm.
